Experimental data: US10293004B2, “Butyrate-producing bacterium and use thereof” (KABUSHIKI KAISHA YAKULT HONSHA, priority 2014, dated 2019)

What was measured:
mouse C57BL/6J [1] = assay: Multiple oral dose test of YIT 12355 to mouse given indigestible saccharide; format: in vivo; details: for Total cell count: DAPI counting method; for Cell count, A. hadrus: quantitative PCR, multiple oral dose; for Occupancy: cell count of YIT 12355/total cell count ×100; for Detected count: mice with A. hadrus detected / mice in group
Protocol: Mice were acclimatized and raised with F2 feed (manufactured by Funabashi Farm Co., Ltd.) for 1 week and then divided into 6 groups such that the average body weight was almost equal among these groups. Then, a control diet (Table 7) was administered thereto for 1 week and replaced with purified feed containing an indigestible material, which was then administered thereto for 2 weeks. A live cell suspension of YIT 12355 was orally administered twice a week a total of 4 times using a probe. At the final day of the test, each mouse was dissected, and the cecal and colonic contents were recovered and examined for an organic acid concentration. Also, the cell count of YIT 12355 in the intestinal tract contents was measured by quantitative PCR, while change in the whole intestinal flora was examined by use of PCR-DGGE (denaturing gradient gel electrophoresis). • Animal used: mouse C57BL/6J (4 weeks old; CLEA Japan, Inc.) • Test period: 3 weeks • Indigestible saccharide used: lactitol and maltitol • Dose of indigestible saccharide: 5% (w/w) • Administered bacterial strain: YIT 12355 • Dose of bacterium: live cell dose: 3.9 to 6.9×10^8 cfu/mouse (administration of a suspension in physiological saline using a probe). Total cell count including dead cells: […] cfu/mouse • Group configuration: 6 groups (5 mice/group) At the 2nd week of administration of the test feed, each mouse was anesthetized with diethyl ether and euthanized by cervical dislocation. After abdominal section, cecal tissues and colonic tissues were excised to recover their contents. The cecal and colonic contents were diluted 10-fold with PBS and subjected to DNA extraction. DNA was extracted by the bead-phenol method from the 10-fold diluted solution of the intestinal tract contents. Specifically, 0.3 g of glass beads (diameter: 0.1 mm), 300 μL of a Tris-SDS solution (a mixed solution of 250 mL of 200 mM Tris-HCl, 80 mM EDTA, pH 9.0, and 50 mL of 10% SDS) and 500 μL of TE saturated phenol were added to 200 μL of the diluted solution of the intestinal tract contents, and the mixture was vigorously shaken for 30 seconds using FASTPREP FP120 cell disruptive equipment (power level: 5.0). After centrifugation at 15,000 rpm for 5 minutes, 400 μL of a phenol/chloroform/isoamyl alcohol (25:24:1) solution was added to 400 μL of the supernatant, and the mixture was shaken for 45 seconds using FASTPREP FP120 cell disruptive equipment (power level: 4.0). After centrifugation at 15,000 rpm for 5 minutes, 25 μL of 3 M sodium acetate (pH 5.4) and 250 μL of isopropanol were added to 250 μL of the supernatant and mixed therewith. After centrifugation at 15,000 rpm for 5 minutes, the supernatant was removed, and 500 μL of 70% ethanol was added thereto, followed by centrifugation again at 15,000 rpm for 5 minutes. The supernatant was removed, and the pellets were dried and dissolved in 1.0 mL of a TE buffer. The obtained DNA solution was diluted 10-fold with purified water to prepare a template DNA solution. For quantitative PCR, 7500 Real-Time PCR System (manufactured by Life Technologies Corp.) was used. The total volume of the reaction solution was set to 20 μL, and SYBR Premix Ex Taq II (Takara Bio Inc.) containing 1.0 μM each of primers, and the template DNA solution were mixed and then subjected to quantitative PCR. The reaction conditions involved heating at 95° C. for 2 minutes, followed by 40 repetitive cycles each involving reactions at 95° C. for 20 seconds, 55° C. for 20 seconds and 72° C. for 50 seconds, and subsequent reaction at 72° C. for 3 minutes. For subsequent Tm value analysis, after reaction at 60° C. for 1 minute, the temperature was elevated at a temperature gradient of 0.2° C./sec to 95° C. during which the fluorescence of SYBR Green I was measured to measure the dissociation temperature (Tm) of the double strand of the amplification product. […]

mouse C57BL/6J [2] = assay: Single oral dose test of YIT 12355 to mouse given indigestible saccharide; format: in vivo; details: cecum, single oral dose
Protocol: Mice were acclimatized and raised with F2 feed for 1 week and then divided into 4 groups such that the average body weight was almost equal among these groups. A control diet (Table 12) was administered thereto for 1 week. Then, the control diet was administered to the control group (−/− group) and the AH/− group for 2 weeks while purified feed containing maltitol (MAL-containing diet) was administered to the −/MAL group and the AH/MAL group for 2 weeks. A live cell suspension of YIT 12355 was administered at a single dose using a probe after the administration of the control diet for 1 week. At the final day of the test, each mouse was dissected, and the cecal contents were recovered. The cecal contents were subjected to the cell count measurement of YIT 12355. • Test material: Maltitol (5% mixed feed administration) • Administered bacterial strain: YIT 12355 • Animal species: Mouse C57BL/6J (4 weeks old; CLEA Japan, Inc.) • Group configuration: 7 mice×4 groups The bacterial solution (viable count: 3.1×10^9 cfu/mL, total cell count: 1.9×10^10 cells/mL) prepared in the preceding paragraph 2) was orally administered at a single dose of 0.2 mL (viable count: 6.2×10^8 cfu/mouse, total cell count: 3.8×10^9 cells/mouse) to each mouse using a probe. To the control group and the −/MAL group, 0.2 mL of physiological saline was administered instead of the bacterial solution. […] Then, the cecal contents were recovered. The cecal contents were diluted 10-fold with PBS and subjected to DNA extraction. DNA was extracted by the bead-phenol method described in the paragraph 4)a) of Example 5 from the 10-fold diluted solution of the intestinal tract contents. The cell count of YIT 12355 was measured by quantitative PCR using the obtained DNA as a template and the bacterial species-specific primers described in the paragraph 4)a) of Example 5. After fixation of a portion of the 10-fold diluted solution of the intestinal tract contents in a 4% solution of paraformaldehyde in PBS, the total cell count was measured by the DAPI counting method. The cell count of YIT 12355 was divided by the total cell count to calculate an occupancy (%). (Occupancy of YIT 12355) (%)=(Cell count of YIT 12355/Total cell count)×100 (Expression 5)

[3] = Production of butyrate by each bacterial strain from L-sorbose and D-xylitol (ion-exclusion HPLC); details: 24 hours, minus PYA blank
Protocol: (§1) A frozen stock solution of each bacterial strain (a 10% (w/v) skim milk-2% sodium glutamate solution in which bacterial cells were suspended) (cell count: 2.0 to 5.5×10^10 cells/mL) was thawed, and the solution was inoculated at 1% to 4 mL of a PY liquid medium supplemented with 33 mM sodium acetate and 0.5 (w/v) % glucose (PYGA medium), followed by anaerobic culture at 37° C. for 24 hours. After the culture, the culture solution was inoculated at 1% to a fresh PYGA medium, followed by anaerobic culture at 37° C. for 24 hours. After the culture, the turbidity (OD660) of the culture solution was measured. Then, the culture solution was inoculated at 1% to a PY medium containing 0.5 (w/v) % L-sorbose or D-xylitol and 33 mM sodium acetate (the medium containing L-sorbose: PYSA, and the medium containing D-xylitol: PYXA), followed by anaerobic culture at 37° C. for 24 hours. Then, the turbidity (OD660) was measured.
After the completion of the culture, the organic acid concentration in the culture solution was quantified by ion-exclusion HPLC. In this operation, a culture solution in a PY medium supplemented with sodium acetate but without L-sorbose or D-xylitol (PYA medium) was used as a blank.
(HPLC Analysis Conditions) • Eluent: 15 mM perchloric acid-7% acetonitrile • pH adjuster: 15 mM perchloric acid-60 mM • tris(hydroxymethyl)aminomethane-7% acetonitrile • Separation column: Organic acid analysis column RSpak KC- • 811×2 (manufactured by Showa Denko K.K.) • Column temperature: 42° C. • Injected sample volume: 10 μL • Flow rate: 1.0 mL/min • Analysis time: 35 min • Detector: Waters 432 electric conductivity detector • Cell temperature: 45° C.
The amount of butyrate produced was calculated according to (Expression 1). Amount of butyrate produced=(Amount of butyrate produced by culture for 24 hours in a PYSA or PYXA medium)−(Amount of butyrate produced by culture for 24 hours in a PYA medium) (Expression 1)

[4] = Biochemical properties: saccharide fermentability (API-ZYM, Rapid ID32A API, API KENKI 20A); design: key: +: positive reaction; −: negative reaction; +^w: weak reaction
Description: (§2) Commercially available API-ZYM, Rapid ID32A API, and API KENKI 20A (SYSMEX bioMerieux Co., Ltd.) were used in the testing of biochemical properties of various bacterial strains. The testing method followed the product manuals.

[5] = Biochemical properties: enzymatic activity (API-ZYM, Rapid ID32A API, API KENKI 20A); design: key: +: positive reaction; −: negative reaction; +^w: weak reaction
Description: as §2

[6] = Turbidity (OD660) after anaerobic culture of bacterial strains in PYGA, PYSA or PYXA medium
Protocol: as §1

With `OC[C@@H](O)[C@@H](O[C@@H]1O[C@H](CO)[C@H](O)[C@H](O)[C@H]1O)[C@H](O)[C@@H](O)CO` [—/LAC group, lactitol] the Total cell count (mouse C57BL/6J [1]; Cecal contents) was 11.1 ± 0.1 log10 cells/g contents, the “Cell count, A. hadrus” value (mouse C57BL/6J [1]; Cecal contents) was 7.2 log10 cells/g contents and the Occupancy (mouse C57BL/6J [1]; Cecal contents) was 0.014%. The Detected count (mouse C57BL/6J [1]; Cecal contents) was “(1/5)”, the Total cell count (mouse C57BL/6J [1]; Colonic contents) was 11.1 ± 0.1 log10 cells/g contents and the Occupancy (mouse C57BL/6J [1]; Colonic contents) was 0.000%. The Detected count (mouse C57BL/6J [1]; Colonic contents) was “(0/5)”.

In the case of `OC[C@@H](O)[C@@H](O[C@H]1O[C@H](CO)[C@@H](O)[C@H](O)[C@H]1O)[C@H](O)[C@@H](O)CO` [—/MAL group, maltitol], the Total cell count (mouse C57BL/6J [1]; Cecal contents) is reported as 11.0 ± 0.1 log10 cells/g contents, the “Cell count, A. hadrus” value (mouse C57BL/6J [1]; Cecal contents) is reported as 6.1 log10 cells/g contents and the Occupancy (mouse C57BL/6J [1]; Cecal contents) is reported as 0.001%. The Detected count (mouse C57BL/6J [1]; Cecal contents) was “(1/5)”, the Total cell count (mouse C57BL/6J [1]; Colonic contents) was 11.0 ± 0.1 log10 cells/g contents and the Occupancy (mouse C57BL/6J [1]; Colonic contents) was 0.000%. The Detected count (mouse C57BL/6J [1]; Colonic contents) was “(0/5)”, the Total cell count (mouse C57BL/6J [2]; DAPI counting method) was 10.9 ± 0.1 log10 (cells/g contents) and the “Cell count, A. hadrus YIT 12355” value (mouse C57BL/6J [2]; quantitative PCR) was <6.0 log10 (cells/g contents). The Occupancy (mouse C57BL/6J [2]; ratio to total cell count) was 0.0%.

With “Anaerostipes hadrus (Eubacterium hadrum) YIT 10092^T (DSM 3319^T) [reference compound]” the “Amount of butyrate produced” value ([3]; D-Xylitol 0.5 (w/v) %, PYXA medium) was -0.1 mmol/L, the “Amount of butyrate produced” value ([3]; L-Sorbose 0.5 (w/v) %, PYSA medium) was 9.7 mmol/L and the Aesculin [4] was “−”. The D-Cellobiose [4] was “+”, the D-Mannitol [4] was “+” and the D-Raffinose [4] was “−”. The D-Xylose [4] was “+”, the Glycerol [4] was “−” and the L-Arabinose [4] was “+”. The L-Rhamnose [4] was “−”, the L-Sorbitol [4] was “+” and the Mallose [4] was “+^w”. The Salicin [4] was “+”, the Acid phosphatase [5] was “+” and the Alkaline phosphatase [5] was “−”. For the same compound, the “Esterase (C4)” value [5] was “+”, the Naphthol-AS-B1-phosphohydrolase [5] was “+” and the α-Glucosidase [5] was “−”. The β-Galactosidase [5] was “+”, the β-Galactosidase-6-phosphate [5] was “+” and the “Turbidity (OD660)” value ([6]; after anaerobic culture at 37° C. for 24 hours in PYGA liquid medium) was 2.80. For the same compound, the “Turbidity (OD660)” value ([6]; anaerobic culture at 37° C. for 24 hours of 1% inoculum in PYSA (L-sorbose)) was 2.56 and the “Turbidity (OD660)” value ([6]; anaerobic culture at 37° C. for 24 hours of 1% inoculum in PYXA (D-xylitol)) was 0.11.
